Laboratory results reported in patent publication EP0097071A1, “Benzhydryl sulfinylacetamide derivatives and their therapeutical use” (LABORATOIRE L. LAFON Société anonyme dite:, priority 1982, dated 1983).

Columns and labels:
Type in all cases: in vivo
SNC = experiment: Essential activity on the CNS (Tableau I and conclusions of the neuropsychopharmacological study); conditions: in vivo
From the text: Dans le tableau I ci-après, on a consigné un certain nombre de composés selon la formule I de façon nullement limitative, en mentionnant l'activité essentielle sur le SNC.
Les composés de formule I agissent tous sur le SNC. Les produits des exemples 1-3 et 7-8 sont des agents stimulants, en revanche les produits des exemples 4-6 sont des agents sédatifs.

souris mâle [1] = experiment: Pentobarbital-induced sleep duration
From the text: Les composés selon l'invention se distinguent du benzhydrylsulfinylacétamide (CRL 40476) précité par une différence d'action vis-à-vis du sommeil barbiturique. […]. Cette différence d'action qui est intéressante sur le plan thérapeutique est illustrée par le tableau IV

souris mâle [2] = experiment: Toxicity, DL-0; conditions: i.p.
Procedure: (§1) On a résumé ci-après les résultats des essais pharmacologiques qui ont été entrepris avec les produits selon la présente addition. Dans ces essais, les produits de formule I à étudier ont été administrés par voie intrapéritonéale, en suspension dans une solution aqueuse de gomme arabique, sous un volume de 20 ml/kg chez la souris mâle et sous un volume de 5 ml/kg chez le rat mâle.
La toxicité a été étudiée chez la souris mâle. Les résultats relatifs à la DL-0 (dose minimale non mortelle) sont donnés dans le tableau II ci-après.

souris mâles = experiment: Global behaviour and reactivities, mouse; conditions: souris
Procedure: as §1
(§2) Pour apprécier le comportement global et les réactivités, des lots de six animaux (souris mâles ou rats mâles) ont été observés avant administration de chaque produit, puis 15 min, 30 min, 1 h, 2 h, 3 h et 24 h après administration de chaque produit. Les résultats sont consignés dans le tableau III ci-après, […]

rats mâles = experiment: Global behaviour and reactivities, rat
Procedure: as §1, §2

souris [3] = experiment: Interaction with apomorphine, mouse
Procedure: as §1
Des lots de 6 souris par dose reçoivent le CRL 40933 0,5 h avant l'injection sous-cutanée d'apomorphine administrée à la dose de 1 ou 16 mg/kg.

souris [4] = experiment: Interaction with reserpine
Procedure: as §1
Quatre heures après l'injection intrapéritonéale de 2,5 mg/kg de réserpine, des lots de 6 souris reçoivent le CRL 40933.

souris [5] = experiment: Interaction with oxotremorine
Procedure: as §1
Le CRL 40933 est administré à des lots de 6 souris 0,5 h avant l'injection intrapéritonéale de 0,5 mg/kg d'oxotrémorine.

souris [6] = experiment: Four plates test
Procedure: as §1
(§3) Les essais sont effectués sur des lots de 10 souris (par dose) 0,5 h après l'administration du CRL 40933.

souris [7] = experiment: Traction test; conditions: 0,5 h after administration, dose not stated
Procedure: as §1, §3

souris [8] = experiment: Electroshock
Procedure: as §1, §3

souris [9] = experiment: Spontaneous motility (actimeter)
Procedure: as §1
Une demi-heure, après avoir reçu le CRL 40933, les souris (6 par dose, 12 témoins) sont placées en actimètre où leur motilité est enregistrée pendant 30 min.

souris [10] = experiment: Motility reduced by habituation to the enclosure
Procedure: as §1
Après 18 h de séjour dans les actimètres, les souris (6 par dose, 12 témoins) reçoivent le CRL 40933. Elles sont aussitôt replacées dans leurs enceintes respectives et, 30 min plus tard, on enregistre leur motilité pendant 30 min.

souris [11] = experiment: Interaction with barbital (sleep)
Procedure: as §1
Une demi-heure après l'administration de CRL 40933, des lots de 10 souris reçoivent une injection intrapéritonéale de 220 mg/kg de barbital.

souris [12] = experiment: Behavioural despair (forced immersion); conditions: souris
Procedure: as §1
Une demi-heure après avoir reçu le CRL 40933, des lots de 10 souris par dose sont placés dans un espace restreint rempli d'eau sur une hauteur de 6 cm; on note la durée d'immobilité entre la 2e et la 6e minute suivant l'immersion.

homme = experiment: Clinical trials; conditions: for résultats en tant que médicaments de l'éveil: notamment vieillard, gélules ou comprimés de 100 à 200 mg, 1 à 3 par jour
From the text: Les études cliniques ont porté sur les troubles de la vigilance, de l'éveil et des états confusionnels, d'une part, et sur les troubles de l'affectivité, du contact et des dépressions, d'autre part.

rat = experiment: Interaction with apomorphine, rat; conditions: apomorphine 0,5 mg/kg s.c., dose not stated
Procedure: as §1
Le CRL 40933 est administré à des lots de 6 rats 0,5 h avant l'injection sous-cutanée de 0,5 mg/kg d'apomorphine.

rats = experiment: Interaction with amphetamine (stereotypies); conditions: rat; 8 mg/kg à 128 mg/kg i.p.
Procedure: as §1
L'amphétamine (2 mg/kg)est injectée par voie intrapéritonéale à des lots de 6 rats, 30 min après l'administration de CRL 40933.

souris [13] = experiment: Intergroup aggressiveness; conditions: dose not stated
Procedure: as §1
Après avoir séjourné pendant 3 semaines dans chacune des moitiés d'une cage séparées par une cloison opaque, des groupes de 3 souris reçoivent le CRL 40933. 30 min plus tard, les deux groupes d'une même cage sont réunis par retrait de la cloison et on note le nombre de combats qui surviennent en 10 min.

souris [14] = experiment: Motility reduced by hypoxic aggression (acute hypobaric anoxia)
Procedure: as §1
Une demi-heure après avoir reçu le CRL 40933, les souris (10 par dose, 20 témoins) sont soumises à une anoxie hypobare aiguë [dépression de 600 mm Hg (soit environ 8 x 10^4 pascals) en 90 s, puis détente de 45 s], puis elles sont placées en actimètre où leur motilité est enregistrée pendant 10 min.

souris [15] = experiment: Asphyxic anoxia (gallamine triethiodide); conditions: 64 mg/kg et 256 mg/kg i.p.
Procedure: as §1
Des lots de 10 souris par dose reçoivent le CRL 40933 30 min avant l'administration intrapéritonéale de 32 mg/kg de triiodoéthylate de gallamine.

[16] = 16 mg/kg, 64 mg/kg et 256 mg/kg i.p.
[17] = dose 256 mg/kg i.p., 0,5 h before pentobarbital

NC(=O)C[S+]([O-])C(c1ccccc1)c1ccc(F)cc1 (stereo not shown) [Exemple 9]
Activité sur le SNC (SNC): stimulant
conclusion of the neuropsychopharmacological study: main type of CNS effect (SNC): effet stimulant du SNC qui est essentiel
conclusion: effets de type antidépresseur (SNC): à forte dose seulement un effet antidépresseur du SNC
Action sur la durée du sommeil induit par le pentobarbital (50 mg/kg i.p.) effet (souris mâle [1]; dose 16 mg/kg i.p., 0,5 h before pentobarbital): (a)
DL-O (souris mâle [2]): supérieure à 512 mg/kg
Observations (comportement global et réactivités) (souris mâles; 16 mg/kg i.p.): excitation pendant 1 h pour 33 % des animaux
excitation (souris mâles; 16 mg/kg i.p., pendant 1 h): 33 % des animaux
Observations (comportement global et réactivités) (souris mâles; 64 mg/kg i.p.): excitation apparaissant en 30 minutes, maximale après 2 h et durant 24 h - apparition tardive (2-3 h)- 4 mouvements stéréotypés de faible intensité - réactivité au toucher pendant 2-3 h
Observations (comportement global et réactivités) (souris mâles; 256 mg/kg i.p.): excitation apparaissant en 30 minutes et maximale 2 à 3 h après administration - présence de stétréotypies nettes mais tardives - réactivité au toucher pendant 3 h
Observations (comportement global et réactivités) (rats mâles; 8 mg/kg i.p.): hyporéactivité fugace (0,5 h) et diminution du tonus musculaire
Observations (comportement global et réactivités) (rats mâles; 32 mg/kg i.p.): diminution fugace (0,5 h) de la réactivité au toucher et du tonus musculaire
Observations (comportement global et réactivités) (rats mâles; 128 mg/kg i.p.): excitation pendant 2 h avec hyper-réactivité au toucher pendant 0,5 h
action hypothermisante de l'apomorphine (souris [3]; 256 mg/kg i.p.): s'oppose
comportement de verticalisation et stéréotypies (apomorphine) (souris [3]; 256 mg/kg i.p.): sans modifier
hypothermie réserpinique (souris [4]; 256 mg/kg i.p., 1,5 h): s'oppose tardivement
ptosis réserpinique (souris [4]; 256 mg/kg i.p., 24 h): s'oppose tardivement
signes de stimulation cholinergique périphérique dus à l'oxotrémorine (souris [5]; dose not stated): ne modifie pas
tremblements induits par l'oxotrémorine (souris [5]; dose not stated): n'est pratiquement pas modifiée
baisse de température provoquée par l'oxotrémorine (souris [5]; highest dose used): s'oppose
passages punis (souris [6]; 64 et 256 mg/kg i.p.): nette augmentation
déficit moteur (traction) (souris [7]): ne provoque pas de déficit moteur
effets convulsivants de l'électrochoc (souris [8]; 256 mg/kg i.p.): s'oppose partiellement
durée de l'hypermotilité (souris [9]): ≥ 4 h
time of maximal hypermotility after administration (souris [9]): 0,5 h
motilité spontanée (souris [9]; dès la dose de 16 mg/kg i.p.): pypermotilité
activité motrice chez la souris habituée à son enceinte (souris [10]; 64 mg/kg et 256 mg/kg i.p.): reprise de l'activité motrice
durée du sommeil barbiturique (souris [11]; [16]): diminue nettement
durée d'immobilité (souris [12]; [16]): diminue fortement
action contre l'énurésie (homme): agissent efficacement
résultats en tant que médicaments de l'éveil (homme): excellents résultats

CC(C)(C)NC(=O)C[S+]([O-])C(c1ccccc1)c1ccccc1 (stereo not shown) [Exemple 3]
Activité sur le SNC (SNC): stimulant

CC(C)NC(=O)C[S+]([O-])C(c1ccccc1)c1ccccc1 (stereo not shown) [Exemple 2]
Activité sur le SNC (SNC): stimulant
conclusion of the neuropsychopharmacological study: main type of CNS effect (SNC): agent psychotrope
Action sur la durée du sommeil induit par le pentobarbital (50 mg/kg i.p.) effet (souris mâle [1]; [17]): (a)
DL-O (souris mâle [2]): supérieure à 512 mg/kg
hypothermie modérée (souris mâles; 256 mg/kg i.p., pendant 0,5 h): -1 °C
Observations (comportement global et réactivités) (souris mâles; 512 mg/kg i.p.): respiration déprimée, dyspnée, sédation, diminution de la réactivité au toucher, puis excitation au bout de 3 h
mortalité (souris mâles; 512 mg/kg i.p.): pas de mortalité
Observations (comportement global et réactivités) (souris mâles; 128 mg/kg i.p.): sédation, puis excitation 3 h après admi-nistration
Observations (comportement global et réactivités) (souris mâles; 256 mg/kg i.p.): sédation pendant 0,5 h avec diminution de la fréquence respiratoire - hyporéactivité au toucher pendant 2 h - hypothermie modérée (-1°C) pendant 0,5 h - excitation 3 h après administration
Observations (comportement global et réactivités) (rats mâles; 128 mg/kg i.p.): mydriase pendant 3 h
comportement de verticalisation et stéréotypies (apomorphine) (souris [3]; dose not stated): laisse inchangés
hypothermie produite par l'apomorphine (souris [3]; dose not stated): laisse inchangés
stéréotypies induites par l'apomorphine (rat): ne sont pas modifiées
stéréotypies amphétaminiques (rats): semble potentialiser faiblement
ptôsis réserpinique (souris [4]; 256 mg/kg i.p.): diminue très modérément
signes de stimulation cholinergique périphérique, notamment la défécation (souris [5]; 64 mg/kg à 256 mg/kg i.p.): semble entraîner une diminution
intensité des tremblements provoqués par l'oxotrémorine (souris [5]; 256 mg/kg i.p.): semble diminuer modérément
action hypothermisante de l'oxotrémorine (souris [5]; dose not stated): ne modifie pratiquement pas
nombre de passages punis (souris [6]; 0,5 h after administration, dose not stated): n'entraîne pas d'augmentation
déficit moteur (traction) (souris [7]): ne provoque pas de déficit moteur majeur
effets convulsivants de l'électrochoc (souris [8]; 64 mg/kg à 256 mg/kg i.p.): s'oppose
motilité spontanée (souris [9]; 256 mg/kg i.p.): hypermotilité nette
agressivité intergroupes (nombre de combats) (souris [13]): diminue très modérément
activité chez la souris habituée à son enceinte (souris [10]; 4 mg/kg, 64 mg/kg et 256 mg/kg i.p.): semble provoquer une reprise de l'activité
reprise de l'activité chez la souris habituée à son enceinte (souris [10]; intermediate dose 16 mg/kg i.p.): n'est pas observé
récupération motrice (motilité réduite par agression hypoxique) (souris [14]; 64 mg/kg et surtout 256 mg/kg i.p.): amélioration nette
apparition des convulsions anoxiques provoquées par le triiodoéthylate de gallamine (souris [15]): retarde modérément
durée du sommeil barbiturique (souris [11]; 256 mg/kg i.p.): diminue nettement
durée d'immobilité (souris [12]; dès la dose de 16 mg/kg i.p.): diminue nettement
action contre l'énurésie (homme): agissent efficacement
résultats en tant que médicaments de l'éveil (homme): excellents résultats

CCNC(=O)C[S+]([O-])C(c1ccccc1)c1ccccc1 (stereo not shown) [Exemple 4]
Activité sur le SNC (SNC): sédatif
Action sur la durée du sommeil induit par le pentobarbital (50 mg/kg i.p.) effet (souris mâle [1]; dose 64 mg/kg i.p., 0,5 h before pentobarbital): (a)
Action sur la durée du sommeil induit par le pentobarbital (50 mg/kg i.p.) effet (souris mâle [1]; dose 128 mg/kg i.p., 0,5 h before pentobarbital): (a)
Action sur la durée du sommeil induit par le pentobarbital (50 mg/kg i.p.) effet (souris mâle [1]; [17]): (a)
DL-O (souris mâle [2]): supérieure à 512 mg/kg
ensemble d'effets de type sédatif (souris mâles; doses faibles et moyennes): sédation, hypo- réactivité, hypoagressivité, hypothermie
effet convulsivant de l'électrochoc (souris [8]; doses faibles et moyennes): antagonisme
activité motrice (souris [9]; doses faibles et moyennes): absence de toute diminution d'activité motrice
motilité spontanée (souris [9]; doses élevées): hypermotilité discrète
activité chez la souris habituée à son enceinte (souris [10]; doses élevées): reprise modérée de l'activité
récupération motrice après hypoxie (souris [14]; doses élevées): amélioration sensible
sommeil barbiturique (souris [11]; dose not stated): effet antagoniste
hypomotilité de "désespoir" (souris [12]; dose not stated): diminution

O=C(C[S+]([O-])C(c1ccccc1)c1ccccc1)N1CCOCC1 (stereo not shown) [Exemple 6]
Activité sur le SNC (SNC): sédatif
